{"source": "paper PMC9329436", "about": "“Optimization of the 4-anilinoquin(az)oline scaffold as epidermal growth factor receptor (EGFR) inhibitors for chordoma utilizing a toxicology profiling assay platform” (Scientific Reports, 2022)", "key": {"[1]": {"system": "UM-Chor1 patient-derived chordoma cell line", "assay": "Cell viability assay (alamarBlue, 72 h), UM-Chor1", "assay_type": "cell-based, human", "conditions": "n = 4, 72 h", "procedure,_shortened": "(§1)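 Patient-derived chordoma lines and WS1 fibroblasts seeded in 384-well plates, dosed in quadruplicate 24 h after plating.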"}, "[2]": {"system": "U-CH7 patient-derived chordoma cell line", "assay": "Cell viability assay (alamarBlue, 72 h), U-CH7", "assay_type": "cell-based, human", "conditions": "n = 4, 72 h", "procedure,_shortened": "as §1"}, "[3]": {"system": "HL60 cells", "assay": "AsedaSciences SYSTEMETRIC Cell Health Screen (flow cytometry toxicity profiling)", "conditions": "HL60, 4 h, 5 nM–100 µM; for CC: Cell Cycle score / CM: Cell morphology score / CMI: Cell membrane integrity score / GSH: Glutathione score / MMP: Mitochondrial membrane depolarization score / NMI1: Nuclear membrane integrity 1 score / NMI2: Nuclear membrane integrity 2 score / ROS: Reactive superoxide species score: probability 0–1, n = 2; for CHI: Cell Health Index: probability (0–1) of high-risk class, n = 2", "procedure,_shortened": "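HL60 cells (100,000 per well) exposed 4 h at 37 °C, 5% CO2 to 10-step 3× dilutions (5 nM–100 µM), in duplicate. Cells then stained with mitochondrial and cell-stress reporter dyes and read by ungated flow cytometry over twelve parameters. Cell Health Index and eight endpoint scores come from an ML classifier trained on 300 high/low-risk compounds.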"}, "[4]": {"molecular_target": "320 wild-type protein kinases (Homo sapiens, UniProt O75116)", "sequence (O75116 whole entry)": "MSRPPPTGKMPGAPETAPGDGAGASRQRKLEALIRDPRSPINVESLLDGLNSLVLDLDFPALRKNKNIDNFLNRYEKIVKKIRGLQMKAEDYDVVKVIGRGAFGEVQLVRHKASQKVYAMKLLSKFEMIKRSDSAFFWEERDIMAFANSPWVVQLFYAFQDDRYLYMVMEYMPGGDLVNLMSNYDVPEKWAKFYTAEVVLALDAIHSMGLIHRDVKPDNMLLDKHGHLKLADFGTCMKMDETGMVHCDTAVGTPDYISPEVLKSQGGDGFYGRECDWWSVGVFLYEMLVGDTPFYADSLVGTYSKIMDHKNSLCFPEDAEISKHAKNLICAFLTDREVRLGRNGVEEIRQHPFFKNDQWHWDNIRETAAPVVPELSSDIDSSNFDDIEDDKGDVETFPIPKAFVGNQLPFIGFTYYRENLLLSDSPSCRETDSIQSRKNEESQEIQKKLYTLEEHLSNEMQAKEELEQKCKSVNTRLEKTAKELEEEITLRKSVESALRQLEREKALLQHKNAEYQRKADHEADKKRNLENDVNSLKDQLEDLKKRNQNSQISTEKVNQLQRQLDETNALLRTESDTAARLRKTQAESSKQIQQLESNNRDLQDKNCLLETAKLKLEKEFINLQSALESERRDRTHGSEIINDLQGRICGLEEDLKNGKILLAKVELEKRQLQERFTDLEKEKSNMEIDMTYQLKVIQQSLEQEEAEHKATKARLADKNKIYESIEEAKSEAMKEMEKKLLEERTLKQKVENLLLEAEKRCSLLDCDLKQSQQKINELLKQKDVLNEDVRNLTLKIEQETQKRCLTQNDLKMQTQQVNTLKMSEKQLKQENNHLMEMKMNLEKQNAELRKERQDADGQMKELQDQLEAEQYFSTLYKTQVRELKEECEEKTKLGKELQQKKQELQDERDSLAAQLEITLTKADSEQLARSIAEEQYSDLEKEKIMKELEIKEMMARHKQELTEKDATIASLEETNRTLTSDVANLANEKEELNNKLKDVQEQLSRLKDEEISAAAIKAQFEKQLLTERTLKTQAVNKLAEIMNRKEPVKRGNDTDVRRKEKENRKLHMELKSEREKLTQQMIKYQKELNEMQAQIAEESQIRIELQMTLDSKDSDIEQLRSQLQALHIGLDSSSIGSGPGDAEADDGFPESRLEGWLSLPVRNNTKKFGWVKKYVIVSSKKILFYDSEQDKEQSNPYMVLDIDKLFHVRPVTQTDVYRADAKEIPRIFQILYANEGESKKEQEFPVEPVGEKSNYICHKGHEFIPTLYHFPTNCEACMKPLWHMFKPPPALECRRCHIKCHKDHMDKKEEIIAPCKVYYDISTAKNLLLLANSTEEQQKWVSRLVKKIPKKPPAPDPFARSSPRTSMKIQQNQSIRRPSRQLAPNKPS", "assay_type": "biochemical", "conditions": "kinase ROCK2, singlicate", "from_the_text": "(§2) Table S4. Profiling of two compounds at two concentrations against 320 wild-type protein kinases; singlicate measurement; Residual activities (% of control)."}, "[5]": {"molecular_target": "320 wild-type protein kinases (Homo sapiens, UniProt P27361)", "sequence (P27361 whole entry)": "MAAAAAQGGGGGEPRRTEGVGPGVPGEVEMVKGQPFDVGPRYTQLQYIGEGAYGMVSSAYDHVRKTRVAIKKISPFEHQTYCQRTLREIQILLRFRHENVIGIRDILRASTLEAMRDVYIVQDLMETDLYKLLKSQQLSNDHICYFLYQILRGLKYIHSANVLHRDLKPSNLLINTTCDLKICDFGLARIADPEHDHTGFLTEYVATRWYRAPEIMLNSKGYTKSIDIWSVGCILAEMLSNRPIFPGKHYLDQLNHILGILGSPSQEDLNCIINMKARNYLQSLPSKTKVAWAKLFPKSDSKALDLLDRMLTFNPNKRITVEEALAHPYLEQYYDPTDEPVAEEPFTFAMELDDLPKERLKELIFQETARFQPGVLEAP", "assay_type": "biochemical", "conditions": "singlicate", "from_the_text": "as §2"}, "[6]": {"molecular_target": "320 wild-type protein kinases (Homo sapiens, UniProt Q5TCX8)", "sequence (Q5TCX8 whole entry)": "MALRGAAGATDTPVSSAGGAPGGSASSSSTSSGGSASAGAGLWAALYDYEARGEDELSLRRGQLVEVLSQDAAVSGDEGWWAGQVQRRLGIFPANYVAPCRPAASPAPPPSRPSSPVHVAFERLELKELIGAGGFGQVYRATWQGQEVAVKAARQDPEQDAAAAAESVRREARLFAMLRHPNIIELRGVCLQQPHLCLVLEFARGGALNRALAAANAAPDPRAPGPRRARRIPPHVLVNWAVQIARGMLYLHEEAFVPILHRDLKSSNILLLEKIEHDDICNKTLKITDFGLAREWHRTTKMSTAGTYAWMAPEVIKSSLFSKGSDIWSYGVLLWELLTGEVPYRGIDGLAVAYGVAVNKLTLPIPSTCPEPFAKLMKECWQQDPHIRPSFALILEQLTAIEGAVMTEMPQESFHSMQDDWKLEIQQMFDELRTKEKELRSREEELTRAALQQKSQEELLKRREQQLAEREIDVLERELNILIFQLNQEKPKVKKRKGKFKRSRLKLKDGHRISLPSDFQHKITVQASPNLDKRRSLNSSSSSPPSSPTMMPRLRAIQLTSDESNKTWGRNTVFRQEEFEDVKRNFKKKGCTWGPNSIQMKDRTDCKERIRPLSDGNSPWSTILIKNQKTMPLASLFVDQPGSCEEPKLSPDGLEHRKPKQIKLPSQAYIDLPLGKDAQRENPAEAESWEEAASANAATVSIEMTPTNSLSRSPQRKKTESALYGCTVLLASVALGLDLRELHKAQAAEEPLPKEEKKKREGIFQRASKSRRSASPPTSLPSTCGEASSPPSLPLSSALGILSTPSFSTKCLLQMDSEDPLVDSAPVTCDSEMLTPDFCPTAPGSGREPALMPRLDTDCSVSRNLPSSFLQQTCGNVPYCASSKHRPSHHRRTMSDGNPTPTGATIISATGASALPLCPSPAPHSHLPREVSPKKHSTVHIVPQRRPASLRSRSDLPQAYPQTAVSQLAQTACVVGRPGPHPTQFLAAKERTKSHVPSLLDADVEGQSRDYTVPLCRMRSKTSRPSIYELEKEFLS", "assay_type": "biochemical", "conditions": "singlicate", "from_the_text": "as §2"}, "[7]": {"molecular_target": "320 wild-type protein kinases (Homo sapiens, UniProt Q96SB4)", "sequence (Q96SB4 whole entry)": "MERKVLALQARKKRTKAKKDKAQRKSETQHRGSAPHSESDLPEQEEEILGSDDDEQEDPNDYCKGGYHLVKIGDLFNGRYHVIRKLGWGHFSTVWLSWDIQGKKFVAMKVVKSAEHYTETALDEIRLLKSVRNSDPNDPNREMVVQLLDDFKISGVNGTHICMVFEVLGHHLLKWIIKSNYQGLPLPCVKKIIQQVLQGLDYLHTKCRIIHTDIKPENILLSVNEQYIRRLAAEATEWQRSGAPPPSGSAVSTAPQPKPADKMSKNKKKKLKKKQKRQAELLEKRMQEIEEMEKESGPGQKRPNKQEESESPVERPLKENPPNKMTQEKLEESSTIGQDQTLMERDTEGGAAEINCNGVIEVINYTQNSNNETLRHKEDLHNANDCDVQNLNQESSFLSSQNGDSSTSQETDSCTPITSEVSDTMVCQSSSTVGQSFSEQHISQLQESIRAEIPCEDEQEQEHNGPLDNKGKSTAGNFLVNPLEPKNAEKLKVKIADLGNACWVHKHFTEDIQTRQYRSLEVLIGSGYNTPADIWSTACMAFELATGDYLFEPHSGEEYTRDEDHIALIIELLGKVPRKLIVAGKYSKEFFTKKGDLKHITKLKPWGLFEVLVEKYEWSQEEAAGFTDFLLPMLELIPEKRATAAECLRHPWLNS", "assay_type": "biochemical", "conditions": "kinase SRPK1, singlicate", "from_the_text": "as §2"}, "[8]": {"molecular_target": "T1, 320 wild-type protein kinases (Homo sapiens, UniProt Q9Y2U5)", "T1 sequence (Q9Y2U5 1-619)": "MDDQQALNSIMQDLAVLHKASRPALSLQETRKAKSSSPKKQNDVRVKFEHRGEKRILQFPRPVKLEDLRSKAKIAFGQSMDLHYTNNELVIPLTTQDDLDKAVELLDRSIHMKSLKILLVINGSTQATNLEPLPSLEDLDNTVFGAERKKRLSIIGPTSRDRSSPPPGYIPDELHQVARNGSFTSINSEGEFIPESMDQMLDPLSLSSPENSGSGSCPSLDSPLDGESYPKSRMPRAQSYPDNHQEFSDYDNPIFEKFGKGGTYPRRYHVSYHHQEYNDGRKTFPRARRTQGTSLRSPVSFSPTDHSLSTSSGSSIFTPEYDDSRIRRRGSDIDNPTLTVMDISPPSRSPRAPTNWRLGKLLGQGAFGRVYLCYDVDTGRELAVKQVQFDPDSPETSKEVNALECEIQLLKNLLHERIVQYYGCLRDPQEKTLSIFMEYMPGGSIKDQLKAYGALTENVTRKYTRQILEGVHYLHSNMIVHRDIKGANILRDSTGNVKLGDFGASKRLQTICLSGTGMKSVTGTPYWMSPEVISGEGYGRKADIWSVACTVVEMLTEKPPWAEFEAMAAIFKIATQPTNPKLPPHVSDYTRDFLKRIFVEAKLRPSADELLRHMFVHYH", "assay_type": "biochemical", "conditions": "singlicate", "from_the_text": "as §2"}}, "note": "Like-named read-outs stand apart in the source and are kept apart here."}
{"smiles": "C#Cc1cc(Nc2ncnc3cc(I)ccc23)ccc1Cl", "note": "[Compound 41]", "values": [{"measurement": "IC50", "setting": "[1]", "result": 25, "unit": "µM"}, {"measurement": "IC50", "setting": "[2]", "result": 8, "unit": "µM"}, {"measurement": "CC: Cell Cycle score", "setting": "[3]", "result": 0.91}, {"measurement": "CM: Cell morphology score", "setting": "[3]", "result": 1.00}, {"measurement": "CMI: Cell membrane integrity score", "setting": "[3]", "result": 1.00}, {"measurement": "GSH: Glutathione score", "setting": "[3]", "result": 0.99}, {"measurement": "MMP: Mitochondrial membrane depolarization score", "setting": "[3]", "result": 1.00}, {"measurement": "NMI1: Nuclear membrane integrity 1 score", "setting": "[3]", "result": 1.00}, {"measurement": "NMI2: Nuclear membrane integrity 2 score", "setting": "[3]", "result": 1.00}, {"measurement": "ROS: Reactive superoxide species score", "setting": "[3]", "result": 0.99}, {"measurement": "CHI: Cell Health Index", "setting": "[3]", "result": 0.88}, {"measurement": "Residual activity, ROCK2", "setting": "[4]; assay conc. 1.0E-06 M", "result": "88 % of control"}, {"measurement": "Residual activity, ROCK2", "setting": "[4]; assay conc. 1.0E-07 M", "result": "100 % of control"}, {"measurement": "Residual activity", "setting": "[5]; ERK1, 1.0E-06 M", "result": "97 % of control"}, {"measurement": "Residual activity", "setting": "[5]; ERK1, 1.0E-07 M", "result": "91 % of control"}, {"measurement": "Residual activity", "setting": "[6]; MLK4, 1.0E-06 M", "result": "85 % of control"}, {"measurement": "Residual activity", "setting": "[6]; MLK4, 1.0E-07 M", "result": "79 % of control"}, {"measurement": "Residual activity, SRPK1", "setting": "[7]; assay conc. 1.0E-06 M", "result": "89 % of control"}, {"measurement": "Residual activity, SRPK1", "setting": "[7]; assay conc. 1.0E-07 M", "result": "96 % of control"}, {"measurement": "Residual activity", "setting": "[8]; MEKK2, 1.0E-06 M", "result": "93 % of control"}, {"measurement": "Residual activity", "setting": "[8]; MEKK2, 1.0E-07 M", "result": "112 % of control"}]}
{"smiles": "C#Cc1cc(Nc2ncnc3cc(OC)c(OC)cc23)ccc1Cl", "note": "[Compound 45]", "values": [{"measurement": "IC50", "setting": "[1]", "result": 60, "unit": "µM"}, {"measurement": "IC50", "setting": "[2]", "result": 74, "unit": "µM"}, {"measurement": "CC: Cell Cycle score", "setting": "[3]", "result": 0.10}, {"measurement": "CM: Cell morphology score", "setting": "[3]", "result": 1.00}, {"measurement": "CMI: Cell membrane integrity score", "setting": "[3]", "result": 0.51}, {"measurement": "GSH: Glutathione score", "setting": "[3]", "result": 0.079}, {"measurement": "MMP: Mitochondrial membrane depolarization score", "setting": "[3]", "result": 0.48}, {"measurement": "NMI1: Nuclear membrane integrity 1 score", "setting": "[3]", "result": 0.60}, {"measurement": "NMI2: Nuclear membrane integrity 2 score", "setting": "[3]", "result": 0.40}, {"measurement": "ROS: Reactive superoxide species score", "setting": "[3]", "result": 0.77}, {"measurement": "CHI: Cell Health Index", "setting": "[3]", "result": 0.60}, {"measurement": "Residual activity, ROCK2", "setting": "[4]; assay conc. 1.0E-06 M", "result": "84 % of control"}, {"measurement": "Residual activity, ROCK2", "setting": "[4]; assay conc. 1.0E-07 M", "result": "90 % of control"}, {"measurement": "Residual activity", "setting": "[5]; ERK1, 1.0E-06 M", "result": "95 % of control"}, {"measurement": "Residual activity", "setting": "[5]; ERK1, 1.0E-07 M", "result": "92 % of control"}, {"measurement": "Residual activity", "setting": "[6]; MLK4, 1.0E-06 M", "result": "83 % of control"}, {"measurement": "Residual activity", "setting": "[6]; MLK4, 1.0E-07 M", "result": "85 % of control"}, {"measurement": "Residual activity, SRPK1", "setting": "[7]; assay conc. 1.0E-06 M", "result": "97 % of control"}, {"measurement": "Residual activity, SRPK1", "setting": "[7]; assay conc. 1.0E-07 M", "result": "100 % of control"}, {"measurement": "Residual activity", "setting": "[8]; MEKK2, 1.0E-06 M", "result": "107 % of control"}, {"measurement": "Residual activity", "setting": "[8]; MEKK2, 1.0E-07 M", "result": "120 % of control"}]}
